Test results taken from ChEMBL document CHEMBL1649295, “Pharmacokinetic-pharmacodynamic modeling of the in vitro activities of oxazolidinone antimicrobial agents against methicillin-resistant Staphylococcus aureus” (Antimicrob Agents Chemother, 2009).
≈ marks a conversion by molar mass, not a printed value. Calls of active or inactive are those of the source. The rule behind the calls is not given here.

How the values were obtained:
[1] = system: Staphylococcus aureus; experiment: Antibacterial activity against methicillin-resistant Staphylococcus aureus OC2878 assessed as log reduction in bacterial count at 8 times MIC after 24 hrs by time kill study; format: functional
[2] = system: Staphylococcus aureus; experiment: Antibacterial activity against methicillin-resistant Staphylococcus aureus OC2878 assessed as inhibition of bacterial regrowth at 16 times MIC after 8 hrs by dynamic time kill study; format: functional, organism-based
[3] = Chemical stability of the compound assessed as compound degradation at 16 times MIC after 24 hrs by RP-HPLC analysis; format: physicochemical
[4] = system: Staphylococcus aureus; experiment: Antibacterial activity against methicillin-resistant Staphylococcus aureus OC2878 by broth macrodilution method
[5] = system: Staphylococcus aureus; experiment: Antibacterial activity against methicillin-resistant Staphylococcus aureus OC2878 assessed as inhibition of bacterial regrowth at 16 times MIC after 24 hrs by dynamic time kill study; format: functional, organism-based

| SMILES | log10cfu [1] | inhibition [2] | Stability [3] | MIC [4] | inhibition [5] |
| --- | --- | --- | --- | --- | --- |
| CC(=O)NC[C@H]1CN(c2ccc(N3CCOCC3)c(F)c2)C(=O)O1 [LINEZOLID] | 2 | inactive | Stable | 1 µg/mL (≈ 2.96 µM) | – |
| CC(=O)NC[C@H]1CN(c2ccc(N3Cc4cn(C)nc4C3)c(F)c2)C(=O)O1 | 2 | – | – | 0.5 µg/mL (≈ 1.34 µM) | Active |
